Data taken from patent US20260146035A1, “FUSED BICYCLIC COMPOUNDS AND THEIR USE AS MER AND AXL INHIBITORS” (DONG-A ST CO., LTD., priority 2022, published 2026).

Tests used:
[1] = target: T1, human MER (528-end) (Homo sapiens, UniProt Q12866); test: HTRF kinase activity biochemical assay, MER; details: 10 μM ATP, 30 minutes pre-incubation; read-out: HTRF MERTK IC50
T1 construct: human MER (528-end); purchased Camnabio, Japan
T1 sequence (Q12866 528-999 limits assumed): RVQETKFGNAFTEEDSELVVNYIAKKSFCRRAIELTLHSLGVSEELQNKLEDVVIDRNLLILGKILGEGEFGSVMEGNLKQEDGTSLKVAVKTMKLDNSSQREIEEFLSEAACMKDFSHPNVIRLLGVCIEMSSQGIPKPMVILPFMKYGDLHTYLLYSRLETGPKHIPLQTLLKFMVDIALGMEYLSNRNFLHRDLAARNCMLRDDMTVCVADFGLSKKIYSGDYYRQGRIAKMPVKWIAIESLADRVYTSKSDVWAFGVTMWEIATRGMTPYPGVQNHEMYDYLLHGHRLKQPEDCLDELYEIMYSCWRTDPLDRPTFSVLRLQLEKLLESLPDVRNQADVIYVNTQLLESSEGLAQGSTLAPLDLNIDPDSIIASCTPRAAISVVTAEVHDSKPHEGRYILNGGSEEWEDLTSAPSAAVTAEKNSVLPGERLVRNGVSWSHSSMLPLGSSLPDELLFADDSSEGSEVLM
Description: (§1) For the SAR (structure-activity relationship) and compound screening, HTRF (Homogeneous Time Resolved Fluorescence) kinase activity assay was employed for all MER, AXL and TYRO3 kinases using Cisbio HTRF® KinEASE™-TK kit (Cisbio, USA). The kit included biotin-labeled TK substrate, streptavidin-XL665, Eu3+-cryptate-labeled TK antibody and HTRF® Detection buffer. There are two main steps in the kinase assay: kinase reaction and detection of phosphorylated substrate. The reaction was carried out in white low volume 384-well plate (Corning, USA) with 25 nL compound in dimethyl sulfoxide in each well. […] After 1 hour incubation at room temperature, the fluorescence intensity was measured with Envision[…] plate reader (PerkinElmer, USA). Upon excitation at 340 nm by UV, the energy from Eu3+ donor of the antibody is transferred to the FRET acceptor XL665, and […] emits light at 665 nm.

[2] = target: T2, human AXL (473-end) (Homo sapiens, UniProt P30530); test: HTRF kinase activity biochemical assay, AXL; details: 10 μM ATP, 30 minutes pre-incubation
T2 construct: human AXL (473-end); purchased SignalChem, Canada
T2 sequence (P30530 473-894 limits assumed): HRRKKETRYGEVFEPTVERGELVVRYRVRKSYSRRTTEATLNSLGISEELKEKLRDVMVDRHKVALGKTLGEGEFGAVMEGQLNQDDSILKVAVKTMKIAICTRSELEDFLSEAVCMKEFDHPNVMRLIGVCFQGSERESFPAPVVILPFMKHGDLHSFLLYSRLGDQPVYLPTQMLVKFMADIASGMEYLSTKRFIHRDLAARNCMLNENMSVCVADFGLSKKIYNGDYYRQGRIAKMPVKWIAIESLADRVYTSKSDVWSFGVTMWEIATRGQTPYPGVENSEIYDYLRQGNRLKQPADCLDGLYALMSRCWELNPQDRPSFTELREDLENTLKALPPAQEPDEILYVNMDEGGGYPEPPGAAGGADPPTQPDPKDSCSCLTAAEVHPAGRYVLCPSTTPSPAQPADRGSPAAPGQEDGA
Description: as §1

[3] = target: T3, human TYRO3 (455-end) (Homo sapiens, UniProt Q06418); test: HTRF kinase activity biochemical assay, TYRO3; details: 10 μM ATP, 30 minutes pre-incubation; read-out: HTRF TYRO IC50
T3 construct: TYRO3 (455-end); purchased SignalChem, Canada
T3 sequence (Q06418 455-890 limits assumed): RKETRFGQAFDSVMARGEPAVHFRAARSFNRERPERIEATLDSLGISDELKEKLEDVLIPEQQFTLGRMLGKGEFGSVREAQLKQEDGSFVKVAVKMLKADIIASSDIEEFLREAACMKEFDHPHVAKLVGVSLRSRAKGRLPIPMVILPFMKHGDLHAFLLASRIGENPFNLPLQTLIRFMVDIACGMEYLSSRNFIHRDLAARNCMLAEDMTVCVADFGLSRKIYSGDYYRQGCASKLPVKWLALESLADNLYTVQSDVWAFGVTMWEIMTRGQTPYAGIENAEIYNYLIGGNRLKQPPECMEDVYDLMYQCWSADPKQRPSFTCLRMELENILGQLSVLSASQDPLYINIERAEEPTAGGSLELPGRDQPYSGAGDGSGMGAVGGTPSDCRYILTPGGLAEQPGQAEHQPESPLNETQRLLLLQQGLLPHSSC
Description: as §1

IC50 [1] | IC50 [2] | IC50 [3] | Compound
< 10 nM | < 10 nM | < 10 nM | CCCC1(C)CN(C2CCN(CCO)CC2)c2ccc(-c3ccc(CO[C@H]4CCC[C@@H]4NC(=O)c4cc(-c5cnn(C)c5)cnc4N)cc3)cc21 (mixture of isomers) [Example 39, 2-amino-N-{(1S,2S)-2-[(4-{1-[1-(2-hydroxyethyl)piperidin-4-yl]-3-methyl-3-propyl-2,3-dihydro-1H-indol-5-yl}phenyl)methoxy]cyclopentyl}-5-(1-methyl-1H-pyrazol-4-yl)pyridine-3-carboxamide]
< 10 nM | < 10 nM | < 10 nM | CCC1(C)CN(C2CCN(CCO)CC2)c2ccc(-c3ccc(CO[C@H]4CCC[C@@H]4NC(=O)c4cc(-c5cnn(C)c5)cnc4N)cc3)cc21 (mixture of isomers) [Example 40, 2-amino-N-{(1S,2S)-2-[(4-{3-ethyl-1-[1-(2-hydroxyethyl)piperidin-4-yl]-3-methyl-2,3-dihydro-1H-indol-5-yl}phenyl)methoxy]cyclopentyl}-5-(1-methyl-1H-pyrazol-4-yl)pyridine-3-carboxamide]
< 10 nM | < 10 nM | 100 to 1000 nM | Cn1cc(-c2cnc(N)c(C(=O)N[C@H]3CCC[C@@H]3OCc3ccc(-c4ccc5c(c4)CC(F)(F)C5N4CCN(CC(O)CO)CC4)cc3)c2)cn1 (mixture of isomers) [Example 59, 2-amino-N-{(1S,2S)-2-[(4-{1-[4-(2,3-dihydroxypropyl)piperazin-1-yl]-2,2-difluoro-2,3-dihydro-1H-inden-5-yl}phenyl)methoxy]cyclopentyl}-5-(1-methyl-1H-pyrazol-4-yl)pyridine-3-carboxamide]
< 10 nM | < 10 nM | 10 to 100 nM | Cn1cc(-c2cnc(N)c(C(=O)N[C@H]3C[C@H](O)C[C@@H]3OCc3ccc(-c4ccc5c(c4)C(C)(C)CN5C4CCN(CCO)CC4)cc3)c2)cn1 (relative stereo) [Example 38, rel-2-amino-N-{(1S,2S,4S)-4-hydroxy-2-[(4-{1-[1-(2-hydroxyethyl)piperidin-4-yl]-3,3-dimethyl-2,3-dihydro-1H-indol-5-yl}phenyl)methoxy]cyclopentyl}-5-(1-methyl-1H-pyrazol-4-yl)pyridine-3-carboxamide]
< 10 nM | < 10 nM | 100 to 1000 nM | Cn1cc(-c2cnc(N)c(C(=O)N[C@H]3CCC[C@@H]3OCc3ccc(-c4ccc5c(c4)C[C@H](F)[C@@H]5N4CCN(CCO)CC4)cc3)c2)cn1 (relative stereo) [Example 85, 2-amino-N-{(1S,2S)-2-[(4-{(1R*,2S*)-2-fluoro-1-[4-(2-hydroxyethyl)piperazin-1-yl]-2,3-dihydro-1H-inden-5-yl}phenyl)methoxy]cyclopentyl}-5-(1-methyl-1H-pyrazol-4-yl)pyridine-3-carboxamide]
< 10 nM | < 10 nM | > 1000 nM | Nc1ncc(-c2ccc(F)nc2)cc1C(=O)N[C@H]1CCC[C@@H]1OCc1ccc(-c2ccc3c(c2)C[C@H](F)[C@@H]3N2CCN(CCO)CC2)cc1 (relative stereo) [Example 89, 6-amino-6′-fluoro-N-{(1S,2S)-2-[(4-{(1R*,2S*)-2-fluoro-1-[4-(2-hydroxyethyl)piperazin-1-yl]-2,3-dihydro-1H-inden-5-yl}phenyl)methoxy]cyclopentyl}[3,3′-bipyridine]-5-carboxamide]
< 10 nM | < 10 nM | > 1000 nM | Cn1cc(-c2cnc(N)c(C(=O)N[C@H]3CCC[C@@H]3OCc3ccc(-c4ccc5c(c4)C[C@H](F)[C@@H]5N4CCN(CCO)CC4)cc3)c2)ccc1=O (relative stereo) [Example 90, 6-amino-N-{(1S,2S)-2-[(4-{(1R*,2S*)-2-fluoro-1-[4-(2-hydroxyethyl)piperazin-1-yl]-2,3-dihydro-1H-inden-5-yl}phenyl)methoxy]cyclopentyl}-1′-methyl-6′-oxo-1′,6′-dihydro[3,3′-bipyridine]-5-carboxamide]
 | < 10 nM | 100 to 1000 nM | Nc1ncc(-c2ccc(F)nc2)cc1C(=O)N[C@H]1CCC[C@@H]1OCc1ccc(-c2ccc3c(c2)CCC3N2CCN(CC(O)CO)CC2)cc1 (stereo partly drawn) [Example 80, 6-amino-N-{(1S,2S)-2-[(4-{1-[4-(2,3-dihydroxypropyl)piperazin-1-yl]-2,3-dihydro-1H-inden-5-yl}phenyl)methoxy]cyclopentyl}-6′-fluoro[3,3′-bipyridine]-5-carboxamide]
 | < 10 nM | 100 to 1000 nM | Nc1ncc(-c2cccnc2F)cc1C(=O)N[C@H]1CCC[C@@H]1OCc1ccc(-c2ccc3c(c2)CCC3N2CCN(CCO)CC2)cc1 (stereo partly drawn) [Example 82, 6-amino-2′-fluoro-N-{(1S,2S)-2-[(4-{1-[4-(2-hydroxyethyl)piperazin-1-yl]-2,3-dihydro-1H-inden-5-yl}phenyl)methoxy]cyclopentyl}[3,3′-bipyridine]-5-carboxamide]
 | < 10 nM | 100 to 1000 nM | Nc1ncc(-c2ccc(F)nc2)cc1C(=O)N[C@H]1CCC[C@@H]1OCc1ccc(-c2ccc3c(c2)CC[C@@H]3N2CCN(CC(O)CO)CC2)cc1 (stereo partly drawn) [Example 100, 6-amino-N-{(1S,2S)-2-[(4-{(1S)-1-[4-(2,3-dihydroxypropyl)piperazin-1-yl]-2,3-dihydro-1H-inden-5-yl}phenyl)methoxy]cyclopentyl}-6′-fluoro[3,3′-bipyridine]-5-carboxamide]
 | < 10 nM | 100 to 1000 nM | Nc1ncc(-c2cccnc2F)cc1C(=O)N[C@H]1CCC[C@@H]1OCc1ccc(-c2ccc3c(c2)CC[C@@H]3N2CCN(CC(O)CO)CC2)cc1 (stereo partly drawn) [Example 102, 6-amino-N-{(1S,2S)-2-[(4-{(1S)-1-[4-(2,3-dihydroxypropyl)piperazin-1-yl]-2,3-dihydro-1H-inden-5-yl}phenyl)methoxy]cyclopentyl}-2′-fluoro[3,3′-bipyridine]-5-carboxamide]
 | < 10 nM | 100 to 1000 nM | Nc1ncc(-c2cccnc2F)cc1C(=O)N[C@H]1CCC[C@@H]1OCc1ccc(-c2ccc3c(c2)CC[C@@H]3N2CCN(C[C@H](O)CO)CC2)cc1 [Example 166, 6-amino-N-[(1S,2S)-2-({4-[(1S)-1-{4-[(2S)-2,3-dihydroxypropyl]piperazin-1-yl}-2,3-dihydro-1H-inden-5-yl]phenyl}methoxy)cyclopentyl]-2′-fluoro[3,3′-bipyridine]-5-carboxamide]
 | < 10 nM | 100 to 1000 nM | Nc1ncc(-c2cccnc2F)cc1C(=O)N[C@H]1CCC[C@@H]1OCc1ccc(-c2ccc3c(c2)CC[C@@H]3N2CCN(C[C@@H](O)CO)CC2)cc1 [Example 167, 6-amino-N-[(1S,2S)-2-({4-[(1S)-1-{4-[(2R)-2,3-dihydroxypropyl]piperazin-1-yl}-2,3-dihydro-1H-inden-5-yl]phenyl}methoxy)cyclopentyl]-2′-fluoro[3,3′-bipyridine]-5-carboxamide]
 | < 10 nM | 10 to 100 nM | Nc1ncc(-c2cccnc2F)cc1C(=O)N[C@H]1CCC[C@@H]1OCc1ccc(-c2ccc3c(c2)CCC[C@@H]3N2CCN(C[C@H](O)CO)CC2)cc1 [Example 173, 6-amino-N-[(1S,2S)-2-({4-[(5S)-5-{4-[(2S)-2,3-dihydroxypropyl]piperazin-1-yl}-5,6,7,8-tetrahydronaphthalen-2-yl]phenyl}methoxy)cyclopentyl]-2′-fluoro[3,3′-bipyridine]-5-carboxamide]
